Measured values as given in PMC12373846, “Hemoglobin as a pseudoperoxidase and drug target for oxidative stress-related diseases” (Signal Transduction and Targeted Therapy, 2025).
Read-outs that look alike come from different tables or passages of the source.

Tests used:
[1] = system: C57BL/6J mice; assay: Arterial blood P50 and Hb concentration; assay type: in vivo, mouse; settings: 0.1, 1 or 10 mg/kg, 24 h
Procedure: The mice were placed in a supine position to expose the thoracic area. The mice were anesthetized with 2.5% sevoflurane and placed in the supine position. Mechanical ventilation was provided via a custom-made face mask connected to a ventilator (Ventstar small animal ventilator R415, RWD) set to deliver room air (FiO2 = 0.21), with a respiratory rate of 180 breaths per min and a tidal volume of 10 μl/g body weight. Without a surgical incision, a 1 ml syringe was directly inserted into the heart to collect bright red arterial blood. Care was taken to avoid venous sampling, and blood was passively drawn into the syringe under physiological arterial pressure. The collected arterial blood was immediately analyzed via an i-STAT® 1 Analyzer (Abbott) with CG8+ cartridges to measure pO2 (mmHg), SO2 (%), and hemoglobin concentrations (g/dL). P₅₀ values were calculated via the following equation: P50=pO2×1−SO2/SO2^1/n, n=2.711

[2] = system: A53T mice; assay: Rotarod test, A53T PD mouse model; assay type: in vivo
Procedure: Stereotaxic injections were performed to deliver the AAV-CMV-A53T virus or PBS (control) into the right SNpc (AP, −3.2 mm; ML, −1.3 mm; DV, −4.0 mm from the bregma) of the mice. The injections were administered at a rate of 0.2 μl/min, with a total volume of 1 μl. The procedure was conducted under general anesthesia induced by 1% isoflurane.
The mice were habituated to the rotarod at speeds of 5, 10, and 15 rpm. Motor coordination and endurance were tested at 20 rpm for a maximum of 3 min. The latency to fall was recorded during the test to evaluate motor deficits associated with PD and the therapeutic effects of KDS12025.

[3] = PK-BBB brain-plasma permeability; assay type: in vivo, mouse; settings: 5 mg/kg IV
Procedure: For the brain-plasma permeability assessment, brain tissues from male ICR mice (n = 3 per time point) were collected following euthanasia by CO2 inhalation. Brains were excised, rinsed with saline, blotted dry, and transferred into pre-labeled Eppendorf tubes (one brain per tube). Samples were snap-frozen on dry ice and stored at -80 °C until analysis. Brain samples were processed using the same LC-MS/MS method. The brain-to-plasma concentration ratio was calculated as the concentration of drug in brain tissue divided by the corresponding plasma concentration.

With CNc1ccc(NCCc2ccccc2OC)cc1.Cl [KDS12025, N^1-(2-methoxyphenethyl)-N^4-methylbenzene-1,4-diamine hydrochloride salt] the “arterial oxygen affinity (P50) vs vehicle” value [1] was “did not differ”, the “total Hb concentration in the blood” value [1] was “unaffected” and the “rotarod latency to fall” value ([2]; A53T+KDS12025 1 mg/kg/day ad libitum, Fig. 4h) was “Control (225.3±30.6, n=6), A53T (93.8±19.6, n=7), A53T+KDS12025 (223.8±23.5, n=8) One-way ANOVA with Tukey's multiple comparisons test, F(2,18) = 9.52, p = 0.002 Control vs. A53T, p = 0.005; Control vs. A53T+KDS12025, p > 0.99; A53T vs. A53T+KDS12025, p = 0.003”. For the same compound, the “rotarod latency to fall” value ([2]; A53T+shHbβ::CaMKII+KDS12025, Fig. 6q) was 139.0±51.1, the “rotarod latency to fall” value ([2]; A53T+shHbβ::GFAP+KDS12025, Fig. 6q) was 117.0±63.6 and the Brain concentration ([3]; 2 h) was “BLQ”. The Brain concentration ([3]; 4 h) was “BLQ”, the Brain concentration ([3]; 8 h) was “BLQ” and the Plasma concentration ([3]; 8 h) was “BLQ”. It also gave a concentration at 0.083 h ([3]; male, ICR, mouse, brain, 0.083 h, read-out: Brain concentration) of 1680 ± 34.2 ng/g, a Kp at 0.083 h ([3]; male, ICR, mouse, brain, 0.083 h, read-out: Brain to plasma ratio (B/P)) of 0.9 ± 0.17 and a concentration at 0.25 h ([3]; male, ICR, mouse, brain, 0.25 h, read-out: Brain concentration) of 589 ± 44.1 ng/g. It also gave a Kp at 0.25 h ([3]; male, ICR, mouse, brain, 0.25 h, read-out: Brain to plasma ratio (B/P)) of 0.76 ± 0.04, a concentration at 0.5 h ([3]; male, ICR, mouse, brain, 0.5 h, read-out: Brain concentration) of 234 ± 31.7 ng/g and a Kp at 0.5 h ([3]; male, ICR, mouse, brain, 0.5 h, read-out: Brain to plasma ratio (B/P)) of 0.84 ± 0.19. The concentration at 1 h ([3]; male, ICR, mouse, brain, 1 h, read-out: Brain concentration) was 65.6 ± 12.3 ng/g, the Kp at 1 h ([3]; male, ICR, mouse, brain, 1 h, read-out: Brain to plasma ratio (B/P)) was 0.79 ± 0.25 and the half-life ([3]; male, ICR, mouse, brain, mice, read-out: brain t1/2 (PK-BBB) (converted)) was 14.4 min. The concentration at 0.083 h ([3]; male, ICR, mouse, plasma, 0.083 h, read-out: Plasma concentration) was 1.91 ± 0.323 µg/mL, the concentration at 0.25 h ([3]; male, ICR, mouse, plasma, 0.25 h, read-out: Plasma concentration) was 0.782 ± 0.104 µg/mL and the concentration at 0.5 h ([3]; male, ICR, mouse, plasma, 0.5 h, read-out: Plasma concentration) was 0.284 ± 0.0455 µg/mL. The concentration at 1 h ([3]; male, ICR, mouse, plasma, 1 h, read-out: Plasma concentration) was 0.0847 ± 0.0103 µg/mL, the concentration at 2 h ([3]; male, ICR, mouse, plasma, 2 h) was 0.0155 ± 0.00709 µg/mL and the concentration at 4 h ([3]; male, ICR, mouse, plasma, 4 h) was 0.00299 ± 0.00052 µg/mL. For the same compound, the AUC ([3]; male, ICR, mouse, plasma, mice, read-out: plasma AUCall (PK-BBB)) was 0.721 µg·h/mL, the clearance ([3]; male, ICR, mouse, plasma, mice, read-out: plasma Cl (PK-BBB) (converted)) was 6.91 L/h/kg and the half-life ([3]; male, ICR, mouse, plasma, mice, read-out: plasma t1/2 (PK-BBB) (converted)) was 39 min. For the same compound, the “brain AUCall (PK-BBB)” value ([3]; mice) was 0.43701 µg·h/mL and the “brain Cmax (PK-BBB)” value ([3]; mice) was 1.68064 µg/mL.
